From patent US6087355A, “Cephalosporin antibiotics” (Microcide Pharmaceuticals, Inc., priority 1996, dated 2000)
Where a name gives a salt, the structure may show the parent alone.

Tests used:
S. aureus ATCC 29213 = test: In vitro MIC, agar dilution; type: cell-based; details: Staphylococcus aureus, ATCC29213, read-out: minimum inhibitory concentration (MIC)
Experimental: (§1) The compounds of the invention were evaluated against several β-lactamresistant (for example methicillin-resistant, vancomycin resistant, and/or ampicillin-resistant) bacteria strains by determining the minimum inhibitory concentration (MIC, μg/ml) of each compound with respect to each strain. The MIC, the lowest concentration of antibiotic which inhibits growth of the test organism, was determined by the agar dilution method.
(§2) To determine the MIC for bacterial isolates, the test compound was incorporated in a series of two-fold dilutions into liquified Mueller-Hinton agar. Upon solidification, a number of different bacterial strains were spot inoculated with a replicating device onto the agar surface.
(§3) Aliquots of antimicrobial agents were prepared in phosphate buffered saline (PBS) at pH 7.2. Tween 20 or DMSO was used as a solubilizing vehicle as needed. Standard methods of vortexing, sonicating and gentle heat were used to facilitate solubilizing the test agent. […] A 1.28 mg/mL stock solution was used with a subsequent highest working concentration of 128 μg/mL. Serial two-fold dilutions were done through ≤0.25 μg/mL. Each drug level was tested in duplicate. Two-fold drug dilutions were done in sterile 50 mL tubes with a final drug volume of 5 mL. Upon the addition of 45 mL of molten agar, a 10-fold dilution resulted. Two, 25 mL. plates were then poured into 15×150 mm square Petri plates with grids and allowed to harden.
(§4) A control plate with a reference drug, either cefotaxime, vancomycin or imipenem, was used as the positive growth control. Stock concentrations of reference antibiotics were prepared and frozen at -80° C. […] All test plates were used within 24 hours of preparation.
(§5) Satisfactory results were obtained where the inoculum contained about 10^4 colony forming units (cfu)±0.5 logs. Starting with pure cultures of the test isolates on agar plates, a few isolated colonies were transferred to a tube of nutrient broth and allowed to grow 4-6 hours at 35-36° C. to reach log-phase growth. Dropwise addition of the broth culture to PBS was done to match a 0.5 McFarland turbidity standard equal to 10^8 cfu/mL. This was further diluted ten-fold in PBS to reach a working inoculum concentration of 10^7 cfu/mL. When 1 μL of the working inoculum was applied to the agar surface a concentration of about 10^4 cfu per spot was obtained.
(§6) Disposable sterile 1 μL loops were used to inoculate test plates, with each isolate in a designated grid on the agar plate. An alternate method of inoculation involved the use of a replica plater, a device with 48 steel pins allowing the simultaneous inoculation of multiple isolates. After the spots had dried, the plates were incubated at 35-36° C. for 16-20 hours. Endpoints were assessed as the minimum inhibitory concentration (MIC) of antimicrobial agent.

P. aeruginosa ATCC 27853 = test: In vitro MIC, agar dilution; type: cell-based; details: Pseudomonas aeruginosa, ATCC27853, read-out: minimum inhibitory concentration (MIC)
Experimental: as §1, §2, §3, §4, §5, §6

E. coli ATCC 25992 = test: In vitro MIC, agar dilution; type: cell-based; details: Escherichia coli, ATCC25992, read-out: minimum inhibitory concentration (MIC)
Experimental: as §1, §2, §3, §4, §5, §6

E. faecium ATCC 35667 = test: In vitro MIC, agar dilution; type: cell-based; details: Enterococcus faecium, ATCC35667, read-out: minimum inhibitory concentration (MIC)
Experimental: as §1, §2, §3, §4, §5, §6

E. faecalis ATCC 29212 = test: In vitro MIC, agar dilution; type: cell-based; details: Enterococcus faecalis, ATCC29212, read-out: minimum inhibitory concentration (MIC)
Experimental: as §1, §2, §3, §4, §5, §6

E. faecium A491(Amp^R) = test: In vitro MIC, agar dilution; type: cell-based; details: Enterococcus faecium, read-out: minimum inhibitory concentration (MIC)
Experimental: as §1, §2, §3, §4, §5, §6

[1] = system: S. aureus 76(Meth^R)(lac^+); test: In vitro MIC, agar dilution; type: cell-based; details: Staphylococcus aureus, read-out: minimum inhibitory concentration (MIC)
Experimental: as §1, §2, §3, §4, §5, §6

[2] = system: S. haemolyticus 05(Meth^R); test: In vitro MIC, agar dilution; type: cell-based; details: Staphylococcus haemolyticus, read-out: minimum inhibitory concentration (MIC)
Experimental: as §1, §2, §3, §4, §5, §6

E. faecalis VanB(Van^R) = test: In vitro MIC, agar dilution; type: cell-based; details: Enterococcus faecalis, read-out: minimum inhibitory concentration (MIC)
Experimental: as §1, §2, §3, §4, §5, §6

[3] = system: S. aureus Spain #356(Meth^R); test: In vitro MIC, agar dilution; type: cell-based; details: Staphylococcus aureus, read-out: minimum inhibitory concentration (MIC)
Experimental: as §1, §2, §3, §4, §5, §6

[4] = system: S. aureus ATCC 33593(Meth^R); test: In vitro MIC, agar dilution; type: cell-based; details: Staphylococcus aureus, ATCC33593, read-out: minimum inhibitory concentration (MIC)
Experimental: as §1, §2, §3, §4, §5, §6

E. faecium VanA(Van^R) = test: In vitro MIC, agar dilution; type: cell-based; details: Enterococcus faecium, read-out: minimum inhibitory concentration (MIC)
Experimental: as §1, §2, §3, §4, §5, §6

[5] = system: S. aureus PC1(Meth^S)(lac^+); test: In vitro MIC, agar dilution; type: cell-based; details: Staphylococcus aureus, read-out: minimum inhibitory concentration (MIC)
Experimental: as §1, §2, §3, §4, §5, §6

[6] = system: S. aureus ATCC 13709(Meth^S); test: In vitro MIC, agar dilution; type: cell-based; details: Staphylococcus aureus, ATCC13709, S. aureus ATCC 13709(Meth^S); read-out: minimum inhibitory concentration (MIC)
Experimental: as §1, §2, §3, §4, §5, §6

[7] = system: S. aureus Col(Meth^R)(lac^-); test: In vitro MIC, agar dilution; type: cell-based; details: Staphylococcus aureus, read-out: minimum inhibitory concentration (MIC)
Experimental: as §1, §2, §3, §4, §5, §6
The S. aureus Col strain is a high-level PBP2a producer, whereas S. aureus Col 8A, its isogenic partner, lacks PBP2a.

[8] = system: S. aureus strain ATCC 13709 (methicillin-susceptible); test: Murine model for lethal bacteremic peritonitis; type: in vivo, female Swiss-Webster mice; details: Staphylococcus aureus, ATCC13709, SC, 72 h
Experimental: Groups of 5 female Swiss-Webster mice (Simonsen, Gilroy, Calif.) each are challenged by the intraperitoneal (IP) route with tenfold increments of a bacterial inoculum. This permits calculation of the mean lethal dose (LD50) and the LD100. For preliminary evaluation of a new antibiotic, mice are challenged IP with an LD100 titer of bacteria. In two equal doses administered at the time of bacterial challenge and 2 hours later, groups of 10 mice each are treated subcutaneously with two-fold increments of the test drug and an antibiotic of known efficacy in mice and humans (i.e., positive control). Mice are observed for 72 h. Those alive at 72 h are considered long term survivors. The total drug dose in mg/kg that protects 50% of mice in a group from death is termed the mean protective dose (PD50). PD50 s are similarly determined for several pathogens. The quantitative endpoints for the new drug are then compared with those obtained with reference antibiotics.
Six ten-fold dilutions of inoculum suspended in 0.5 mL of sterilized 7% hog gastric mucin (Sigma) are injected IP in groups of 5 mice each. A control group of 5 mice receive mucin alone. Mice are observed for 72 h. Those alive at 72 h are considered long term survivors. The mean lethal dose (LD50) and 100% lethal dose (LD100) are determined by the probit test.
For antibiotic efficacy studies, mice are challenged IP with bacterial titers that will afford an LD100 for the test strain. In two equal doses administered at the time of bacterial challenge and 2 hours later, groups of 10 mice each are treated by the subcutaneous route (SC) with twofold increments of the test antibiotic; another group is treated similarly with a reference antibiotic of known efficacy in animals and man. Drug doses can range from 0.01 to 512 mg/kg. If the drug is poorly soluble, Tween 20 or propylene glycol will be employed to solubilize the drug. Animals are observed for 72 h. The 50% protective dose (PD50) is calculated in mg/kg by the probit method. The PD50 is the same as the 50% effective dose (ED50) and the 50% curative dose (CD50). Samples of blood from the hearts of all animals that die and from half the mice that survive are cultured on brain-heart infusion agar. Animals that received a protective dosage of the test drug will be alive at 72 h, although they may appear moderately ill to very ill during the observation period. […] Most of these mice will die within 6 to 48 h. Those alive at 72 h will be considered long term survivors.
(Compound numbers correspond to those in MIC tables; data reported for challenge with methicillin-susceptible S. aureus strain ATCC 13709.)

Row | SMILES | MIC (S. aureus ATCC 29213) [mg/L] | MIC (P. aeruginosa ATCC 27853) [mg/L] | MIC (E. coli ATCC 25992) [mg/L] | MIC (E. faecium ATCC 35667) [mg/L] | MIC (E. faecalis ATCC 29212) [mg/L] | MIC (E. faecium A491(Amp^R)) [mg/L] | MIC [1] [mg/L] | MIC [2] [mg/L] | MIC (E. faecalis VanB(Van^R)) [mg/L] | MIC [3] [mg/L] | MIC [4] [mg/L] | MIC (E. faecium VanA(Van^R)) [mg/L] | MIC [5] [mg/L] | MIC [6] [mg/L] | MIC [7] [mg/L] | also measured
1 | N=C(N)SCc1cnccc1SC1=C(C(=O)O)N2C(=O)[C@@H](NC(=O)/C(=N\O)c3csc(N)n3)[C@H]2SC1 [Cmpd 3, (7R)-7-[(Z)-2-(aminothiazol-4-yl)-2-(hydroxyimino)acetamido]-3-(3-isothioureidomethylpyrid-4-ylthio)-3-cephem-4-carboxylate, trifluoroacetic acid salt] | 0.5 | > 32 | 2 | 2 | 0.5 | > 32 | 8 | 8 | 1 | 8 | 8 | 8 | 0.5 | 0.5 | 8 | responders at 0.156 mg/kg ([8]; Dose 0.156 mg/kg, read-out: Survivors): 0%; responders at 0.3125 mg/kg ([8]; Dose 0.3125 mg/kg, read-out: Survivors): 50%; responders at 0.625 mg/kg ([8]; Dose 0.625 mg/kg, read-out: Survivors): 80%; responders at 1.25 mg/kg ([8]; Dose 1.25 mg/kg, read-out: Survivors (converted)): 70%; responders at 2.5 mg/kg ([8]; Dose 2.5 mg/kg, read-out: Survivors): 90%; ED50 ([8]; two equal doses, IP challenge, read-out: ED50): 0.42 mg/kg
2 | CC(=N)NCCSCc1cnccc1SC1=C(C(=O)O)N2C(=O)[C@@H](NC(=O)/C(=N\O)c3nc(N)sc3Cl)[C@H]2SC1 [Cmpd 54, (7R)-7-[(Z)-2-(2-amino-5-chlorothiazol-4-yl)-2-(hydroxyimino)acetamido]-3-(3-(N-acetamidinoyl)aminoethylthiomethylpyrid-4-ylthio)-3-cephem-4-carboxylate, trifluoroacetic acid salt] | 0.25 | > 32 | 8 | 0.5 | 0.13 | 8 | 2 | 2 | 0.25 | 2 | 1 | 1 | 0.25 | 0.25 | 2 | 
3 | N=C(N)SCc1cnccc1SC1=C(C(=O)O)N2C(=O)[C@@H](NC(=O)/C(=N\O)c3nc(N)sc3Cl)[C@H]2SC1 [Cmpd 60, (7R)-7-[(Z)-2-(2-amino-5-chlorothiazol-4-yl)-2-(hydroxyimino)acetamido]-3-(3-isothioureidomethylpyrid-4-ylthio)-3-cephem-4-carboxylate, trifluoroacetic acid salt] | 0.25 | > 32 | 8 | 1 | 0.5 | 16 | 1 | 4 | 0.25 | 2 | 2 | 2 | 0.25 | 0.13 | 2 | 
4 | CN(C)C(=O)CNCCSCc1cnccc1SC1=C(C(=O)O)N2C(=O)[C@@H](NC(=O)/C(=N\O)c3nc(N)sc3Cl)[C@H]2SC1 [Cmpd 61, (7R)-7-[(Z)-2-(2-amino-5-chlorothiazol-4-yl)-2-(hydroxyimino)acetamido]-3-(3-(N,N-dimethylcarboxamidomethylaminoethylthiomethyl)pyrid-4-ylthio)-3-cephem-4-carboxylate, trifluoroacetic acid salt] | 1 | > 32 | 16 | 1 | 0.25 | 16 | 4 | 8 | 0.25 | 4 | 4 | 2 | 1 | 1 | 4 | 
5 | CC(C)(N)CSCc1cnccc1SC1=C(C(=O)O)N2C(=O)[C@@H](NC(=O)/C(=N\O)c3nc(N)sc3Cl)[C@H]2SC1 [Cmpd 62, (7R)-7-[(Z)-2-(2-amino-5-chlorothiazol-4-yl)-2-(hydroxyimino)acetamido]-3-(3-(2-amino-2-methylpropylthiomethyl)pyrid-4-ylthio)-3-cephem-4-carboxylate, trifluoroacetic acid salt] | 0.5 | > 32 | 8 | 1 | 0.13 | 16 | 4 | 4 | 0.25 | 4 | 4 | 2 | 0.5 | 0.5 | 4 | 
